Measured values: patent US20170136001A1, “METHOD OF TREATING A VIRAL INFECTION USING ELVITEGRAVIR COMBINATIONS” (priority 2007, published 2017)

What was measured:
[1] = Study 2: steady-state pharmacokinetic interaction between atazanavir/r and the Compound (85 mg test, 150 mg reference); type: in vivo, human
Description: Consideration was given to achieving equivalent Compound exposures in patients receiving and not receiving atazanavir using pharmacokinetic (bio-) equivalence comparisons (Pharsight Corporation, Mountain View, Calif., USA). Consideration was also given to minimizing the number of individuals with extreme outliers in (low or high) exposures.

[2] = Example 2: pharmacokinetic interaction, EVG/ATV 300/400 mg versus EVG/r 300/100 mg, with midazolam CYP3A probe; details: midazolam oral syrup 5 mg with last dose; EVG/ATV vs. EVG/r
Protocol: This study evaluated the safety and steady-state pharmacokinetics of the co-administered Compound and ATV.
Healthy subjects received EVG/r 300/100 mg or EVG/ATV 300/400 mg in a randomized, crossover manner for 10 days each, with the last dose being coadministered with the CYP3A probe substrate midazolam (oral syrup; 5 mg) and pharmacokinetic (PK) sampling performed. […] ATV, midazolam, and ritonavir pharmacokinetics were also determined for descriptive statistics.

[3] = Study 1: steady-state pharmacokinetic interaction between atazanavir/r and the Compound (200 mg); type: in vivo, human
Description: This study evaluated the safety and steady-state pharmacokinetics of the coadministered Compound and ATV/r.

## COC(=O)N[C@H](C(=O)N[C@@H](Cc1ccccc1)[C@@H](O)CN(Cc1ccc(-c2ccccn2)cc1)NC(=O)[C@@H](NC(=O)OC)C(C)(C)C)C(C)(C)C [ATV, 1-[4-(pyridine-2-yl)-phenyl]-4(S)-2,5-bis-[N—(N-methoxycarbonyl-(L)-tert-leucyl)amino]-6-phenyl-2-axahexane]
[1]; Study 2, coadministration (the Compound 85 mg + ATV/r 300/100 mg QD) : alone (the Compound reference 150 mg), 14 days, healthy subjects
  Cmax % GMR (90% CI): 96.0%
[1]; with the reduced 85 mg dose of the Compound
  ATV exposures: not affected

## Cc1ncc2n1-c1ccc(Cl)cc1C(c1ccccc1F)=NC2 [midazolam]
[2]
  midazolam AUCinf geometric mean ratio (90% CI): 89.5 (80.7, 99.3)
  midazolam Cmax geometric mean ratio (90% CI): 98.8 (89.6, 109)

## COc1cc2c(cc1Cc1cccc(Cl)c1F)c(=O)c(C(=O)O)cn2[C@H](CO)C(C)C [the Compound, 6-(3-chloro-2-fluorobenzyl)-1-[(2S)-1-hydroxy-3-methylbutan-2-yl]-7-methoxy-4-oxo-1,4-dihydroquinoline-3-carboxylic acid]
[3]; Study 1, coadministration (the Compound 200 mg + ATV/r 300/100 mg QD) : alone, 14 days, healthy subjects
  AUCtau % GMR (90% CI): 200%
[3]; coadministration with ATV/r
  the Compound exposures upon coadministration with ATV/r: elevated
[1]; 85 mg of the Compound with ritonavir-boosted atazanavir compared with the 150 mg dose of the Compound alone
  systemic exposure: equivalent
